Experimental data from PMC5100569 (Nucleic Acids Research, 2016).

Columns and labels:
[1] = molecular target: T1, saCodY (Staphylococcus aureus, UniProt A7X1N2); assay: surface plasmon resonance; assay type: binding
T1 sequence (A7X1N2 1-257): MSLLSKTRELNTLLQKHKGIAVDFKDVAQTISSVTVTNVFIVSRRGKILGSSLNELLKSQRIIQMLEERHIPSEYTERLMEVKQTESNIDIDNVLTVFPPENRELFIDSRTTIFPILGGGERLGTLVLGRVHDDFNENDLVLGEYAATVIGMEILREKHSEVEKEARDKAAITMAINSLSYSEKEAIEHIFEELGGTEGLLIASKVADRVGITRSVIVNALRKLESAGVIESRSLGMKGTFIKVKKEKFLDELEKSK

[2] = molecular target: saCodY (Staphylococcus aureus, UniProt A7X1N2, H70A/K158A/K47A/R45A/S43A); assay: biochemical
[3] = molecular target: T2, bcCodY (Bacillus cereus, UniProt Q819X8); assay: size-exclusion chromatography, change of oligomeric state; assay type: binding; settings: 1 mM GTP, pH 8.0, no Ile
T2 sequence (Q819X8 1-259): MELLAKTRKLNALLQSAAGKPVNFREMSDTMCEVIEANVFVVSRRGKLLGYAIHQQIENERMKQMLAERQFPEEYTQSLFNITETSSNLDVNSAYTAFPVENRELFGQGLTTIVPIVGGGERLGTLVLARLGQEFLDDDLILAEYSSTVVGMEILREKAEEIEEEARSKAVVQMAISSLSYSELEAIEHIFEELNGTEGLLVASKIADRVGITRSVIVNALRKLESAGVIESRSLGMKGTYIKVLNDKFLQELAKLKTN

[4] = molecular target: saCodY (Staphylococcus aureus, UniProt A7X1N2, E153A); assay: biochemical
[5] = molecular target: T3, saCodY E153A (Staphylococcus aureus, UniProt A7X1N2 1-257, E153A); assay: EMSA
T3 sequence: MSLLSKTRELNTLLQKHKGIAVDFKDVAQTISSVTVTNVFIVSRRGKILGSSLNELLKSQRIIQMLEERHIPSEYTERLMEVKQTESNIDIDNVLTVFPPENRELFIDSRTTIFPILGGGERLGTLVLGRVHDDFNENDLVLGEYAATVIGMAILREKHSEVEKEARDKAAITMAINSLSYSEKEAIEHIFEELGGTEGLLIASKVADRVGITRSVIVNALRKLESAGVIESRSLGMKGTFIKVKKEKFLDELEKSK

[6] = molecular target: T4, saCodY 3P5A (Staphylococcus aureus, UniProt A7X1N2 1-257, S43A;R45A;K47A;H70A;K158A); assay: EMSA
T4 sequence: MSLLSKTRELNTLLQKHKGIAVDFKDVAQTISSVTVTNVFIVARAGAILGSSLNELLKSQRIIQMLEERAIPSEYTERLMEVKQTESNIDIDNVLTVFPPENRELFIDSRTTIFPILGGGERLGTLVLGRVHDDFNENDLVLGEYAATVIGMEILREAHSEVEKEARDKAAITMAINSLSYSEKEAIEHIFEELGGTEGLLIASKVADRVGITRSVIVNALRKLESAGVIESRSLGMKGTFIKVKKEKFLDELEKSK

[7] = molecular target: the molecule itself; assay: SEC
[8] = molecular target: the molecule itself; assay: crystal structure

Molecule: Nc1ncnc2c1ncn2[C@@H]1O[C@H](COP(=O)(O)OP(=O)(O)OP(=O)(O)O)[C@@H](O)[C@H]1O [ATP]
- Kd [1]: 19 mM

Molecule: Nc1nc2c(ncn2[C@@H]2O[C@H](COP(=O)(O)OP(=O)(O)O)[C@@H](O)[C@H]2O)c(=O)[nH]1 [GDP]
- Kd [1]: 17 mM

Molecule: Nc1nc2c(ncn2[C@@H]2O[C@H](COP(=O)(O)OP(=O)(O)OP(=O)(O)O)[C@@H](O)[C@H]2O)c(=O)[nH]1 [GTP]
- Kd [2]: 35 mM
- Kd [1]: 2.26 mM
- size-exclusion chromatography, change of oligomeric state [3]: after incubation of saCodY and bcCodY with GTP, the proteins eluted at much smaller sizes
- Kd [4]: 28 mM

Molecule: Nc1nc2c(ncn2[C@@H]2O[C@H](COP(=O)(O)O)[C@@H](O)[C@H]2O)c(=O)[nH]1 [GMP]
- Kd [1]: 20 mM

B1: ilvB promoter 45-mer (dsDNA)
DNA 1: CAGGTGGCGTCATGCAAGTCCCTGAGAATTTAATTTAATTTATTT
DNA 2: AAATAAATTAAATTAAATTCTCAGGGACTTGCATGACGCCACCTC
- binding signal [5]: 1.7 fold Kd vs WT without GTP
- binding signal [6]: 3 fold Kd vs WT without GTP

B2: CodY from Bacillus cereus (bcCodY), wild type (natural protein, UniProt Q819X8 1-259, looked up)
chain: MELLAKTRKLNALLQSAAGKPVNFREMSDTMCEVIEANVFVVSRRGKLLGYAIHQQIENERMKQMLAERQFPEEYTQSLFNITETSSNLDVNSAYTAFPVENRELFGQGLTTIVPIVGGGERLGTLVLARLGQEFLDDDLILAEYSSTVVGMEILREKAEEIEEEARSKAVVQMAISSLSYSELEAIEHIFEELNGTEGLLVASKIADRVGITRSVIVNALRKLESAGVIESRSLGMKGTYIKVLNDKFLQELAKLKTN
- stoichiometry N [7]: 4

B3: CodY from Staphylococcus aureus (saCodY), wild type (natural protein, UniProt A7X1N2 1-257, looked up)
chain: MSLLSKTRELNTLLQKHKGIAVDFKDVAQTISSVTVTNVFIVSRRGKILGSSLNELLKSQRIIQMLEERHIPSEYTERLMEVKQTESNIDIDNVLTVFPPENRELFIDSRTTIFPILGGGERLGTLVLGRVHDDFNENDLVLGEYAATVIGMEILREKHSEVEKEARDKAAITMAINSLSYSEKEAIEHIFEELGGTEGLLIASKVADRVGITRSVIVNALRKLESAGVIESRSLGMKGTFIKVKKEKFLDELEKSK
- stoichiometry N [7]: 4
- stoichiometry N [8]: 2
